According to patent publication US20130064931A1, “INGREDIENT DELIVERY SYSTEM” (FIRMENICH SA, priority 2010, published 2013):
Each block holds one compound with its values, some of them ahead of it.

Tests used:
[1] = Photostability of compound 1 under UV (xenon lamp) irradiation, HPLC/UV-DAD measurement; type: physicochemical; conditions: for photodegradation protection of compound 1 (in words): Example 8, anionic and cationic surfactants; for % remaining (compound 1) / HPLC % remaining: 25 ppm compound 1 in water; for % remaining (compound 1): irradiated 120 min; for Time for complete degradation: compound 1 in water, HPLC % remaining reached 0
Experimental: (§1) The photostability of compound 1 under UV irradiation was studied as follows.
(§2) The sample to be irradiated was introduced into a transparent glass bottle, placed on a plate and then subjected to irradiation with a xenon lamp (Xenon lamp Suntest XLS+, Atlas Material Testing Technology LLC). The lamp was set to 650 W/m^2, the temperature was kept constant at 45° C. and the plate was turned slowly in order to assure homogeneous UV-exposure of the entire sample. After a fixed interval, the sample was removed and the content of compound 1 remaining was measured by HPLC and Fluorimetry.
Firstly, a standard solution containing 26.44 mg caffeine in 11 LC-MS grade methanol was prepared. For samples containing 10 ppm of compound 1, the sample was placed in a vial, diluted to 500 μl and 50 μl of the standard solution was added; for samples containing 25 ppm of compound 1, the sample was placed in a vial, diluted to 400 μl and 200 μl of the standard solution was added. Each vial was protected from exposure to light by being wrapped in aluminium foil.
The relative content of compound 1 in irradiated samples was calculated against the non-irradiated reference (set at 100%) using an Agilent Technologies 1200 series HPLC equipped with a degasser G1379B, a binary pump G1312B (large-volume mixer was by-passed), a well-plate high performance autosampler G1367D, a thermostatted column compartment G1316B and a UV (DAD) detector G1315C. The column (ZORBAX Eclipse Plus C18 600Bar 2.1×100 mm, 1.8 μm (#959764-902) was set at 60° C.±0.1° C. Two solvents were used: Solvent “A” was formic acid 0.1% in water, ULC/MS, Biosolve (ready-mix cat.# 23244102); solvent “B” was formic acid 0.1% in acetonitrile, ULC/MS, Biosolve (ready-mix cat. #01934125). The solvent flow rate was 0.500 ml/min; Injection: 2 μl.
Solvent gradient: 0 min-1 min: 95% A • 1 min-8 min: 95% A à 100% B • 8 min-10 min: 100% B • 10 min-12 min: 100% B à 95% A • Post-equilibration 1 min
Detector: UV-DAD: • Caffeine (internal standard): signal 273 nm, Bw 16 • Compound 1: signal 264 nm, Bw 8 • signal 230 nm, Bw 8
The signal at 264 nm was used for the quantification calculations.

[2] = Photostability of compound 1 under UV (xenon lamp) irradiation, fluorimetry measurement; type: physicochemical; conditions: 25 ppm compound 1 in water
Experimental: as §1, §2
The sample to be studied was placed in quartz cell (width lcm). Fluorescence was detected at an angle 90° to the incident exciting beam using a Fluorolog-3 spectrofluorometer (Model FL3-22, Jobin Yvon-Spex Instruments SA, Inc). […] Excitation and emission spectra of each sample were provided.
For calibration, the excitation and emission spectra of compound 1 solutions were measured before and after irradiation. The intensity of the emission maximum of the unirradiated solution was given the value as 100%. The ratio between the intensities of emission maxima of irradiated and unirradiated samples was measured and the results calculated as a percentage.

Compound: CCCCCCCCCCCCCCCC[N+](C)(C)C.[Br-] [CTAB, Cetyl trimethylammonium bromide, reference compound]
photodegradation protection of compound 1 (in words) [1]: little or no photodegradation protection

% remaining (compound 1) ([1]; Polysorbate 80 concentration 0.0001572 % w/w): 0%
% remaining (compound 1) ([1]; Polysorbate 80 concentration 0.0002145 % w/w): 0%
% remaining (compound 1) ([1]; Polysorbate 80 concentration 0.001572 % w/w): 0%
% remaining (compound 1) ([1]; Polysorbate 80 concentration 0.008 % w/w): 0%
% remaining (compound 1) ([1]; Polysorbate 80 concentration 0.01 % w/w): 0%
% remaining (compound 1) ([1]; Polysorbate 80 concentration 0.05 % w/w): 6.55%
% remaining (compound 1) ([1]; Polysorbate 80 concentration 0.1 % w/w): 6.81%
% remaining (compound 1) ([1]; Polysorbate 80 concentration 0.5 % w/w): 12.97%
% remaining (compound 1) ([1]; Polysorbate 80 concentration 1 % w/w): 22.24%
% remaining (compound 1) ([1]; Polysorbate 80 concentration 4 % w/w): 47%
% remaining (compound 1) ([1]; Polysorbate 80 concentration 8.5 % w/w): 88.57%
% remaining (compound 1) ([1]; Polysorbate 80 concentration 15 % w/w): 97.03%
HPLC % remaining ([1]; time of irradiation 0 min (non-irradiated reference set at 100%)): 100%
HPLC % remaining ([1]; time of irradiation 5 min): 79.7%
HPLC % remaining ([1]; time of irradiation 10 min): 62.2%
HPLC % remaining ([1]; time of irradiation 20 min): 46.3%
HPLC % remaining ([1]; time of irradiation 30 min): 32.3%
HPLC % remaining ([1]; time of irradiation 45 min): 24.8%
HPLC % remaining ([1]; time of irradiation 60 min): 18.7%
HPLC % remaining ([1]; time of irradiation 90 min): 6.9%
HPLC % remaining ([1]; time of irradiation 120 min): 0%
HPLC % remaining ([1]; time of irradiation 180 min): 0%
Time for complete degradation ([1]; initial concentration 5 ppm): 45 min
Time for complete degradation ([1]; initial concentration 10 ppm): 60 min
Time for complete degradation ([1]; initial concentration 15 ppm): 90 min
Time for complete degradation ([1]; initial concentration 25 ppm): 120 min
Time for complete degradation ([1]; initial concentration 40 ppm): >180 min
Fluorimetry % remaining ([2]; time of irradiation 0 min (unirradiated solution given the value 100%)): 100%
Fluorimetry % remaining ([2]; time of irradiation 5 min): 91.3%
Fluorimetry % remaining ([2]; time of irradiation 10 min): 78.5%
Fluorimetry % remaining ([2]; time of irradiation 20 min): 52.2%
Fluorimetry % remaining ([2]; time of irradiation 30 min): 38.7%
Fluorimetry % remaining ([2]; time of irradiation 45 min): 27.8%
Fluorimetry % remaining ([2]; time of irradiation 60 min): 21.3%
Fluorimetry % remaining ([2]; time of irradiation 90 min): 16.2%
Fluorimetry % remaining ([2]; time of irradiation 120 min): 12.7%
Fluorimetry % remaining ([2]; time of irradiation 180 min): 6.4%
Compound: CCCNC(=O)C(C)(C)COc1cccc2c1C(N)=NS(=O)(=O)N2 [Compound 1]

Compound: CCCCCCCCCCCCOS(=O)(=O)[O-].[Na+] [SDS, Sodium dodecyl sulphate, reference compound]
photodegradation protection of compound 1 (in words) [1]: little or no photodegradation protection
